Laboratory results published in US20230321055A1, “PREVENTIVE TREATMENT OF MIGRAINE” (priority 2022, published 2023).

System: participants with chronic migraine
Experiment: Phase 3 randomized, double-blind, placebo-controlled study of atogepant for prevention of chronic migraine: eDiary efficacy (migraine, headache and acute medication use days, responder rates)
Format: in vivo, human
Settings: for MMDs, LS mean difference vs. placebo / participants with ≥50% reduction in 3-month average of MMDs / ≥50% reduction in 3-month average of MMDs, OR vs placebo: Europe subpopulation; for LSM change from baseline in mean monthly acute medication use days / mean monthly acute medication use days, LSM difference vs placebo: acute medication over-users; for participants with ≥50% reduction in mean MMDs across the 12-week treatment period: acute medication overuse participants; for LSM change from baseline in mean MMDs across 12 weeks: participants with acute medication overuse at baseline; for mean change from baseline in MMDs: weeks 1-4 of treatment
Protocol: A phase 3, multicenter, randomized, double-blind, placebo-controlled, parallel-group study was carried out to evaluate the efficacy, safety, and tolerability of atogepant for the prevention of chronic migraine. A total of 778 participants from 133 sites in North America, Europe, and East Asia were randomized to one of three treatment arms (placebo, Atogepant 30 mg BID, and Atogepant 60 mg QD) in a 1:1:1 ratio.
This study comprised a 4-week screening and baseline period, a 12-week double blind treatment period, and a follow-up period of 4 additional weeks. The total study duration was 20 weeks. Participant disposition information and other relevant participant screening information may also be found in FIG. 19.
The primary end point was the change from baseline in the mean number of migraine days per month across the 12 week treatment period.
Secondary endpoints included change from baseline in mean monthly headache days across the 12 week treatment period; change from baseline in mean monthly acute medication use days across the 12-week treatment period; at least a 50% reduction in mean monthly migraine days across the 12-week treatment period; change from baseline in MSQ v2.1 Role Function-Restrictive domain score at week 12; change from baseline in mean AIM-D monthly functioning and activity impairment score across the 12-week treatment period; and change from baseline in HIT-6 total score at week 12.
Inclusion criteria included at least a 1-year history of chronic migraine consistent with diagnosis according to the International Classification of Headache Disorders, 3rd Edition (ICHD-3) and age of the participant at the time of migraine onset <50 years. Inclusion criteria further included confirmation of headache / migraine headache day frequency as follows: history of, on average, ≥15 headache days per month in the 3 months prior to Visit 1 in the opinion of the investigator AND >=15 headache days during the 4-week screening/baseline period per the electronic diary (eDiary) AND >=8 days during the 4-week screening/baseline period that qualify as being a migraine day per the eDiary. Participants were also required to be using a medically acceptable and effective method of birth control during the course of the entire study.
Exclusion criteria included a history of migraine, accompanied by diplopia or decreased level of consciousness, or retinal migraine; a current diagnosis of new persistent daily headache, trigeminal autonomic cephalgia (e.g., cluster headache), or painful cranial neuropathy; history of an inadequate response to >4 medications (2 of which have different mechanisms of action) prescribed for the prevention of migraine; and woman who is pregnant, planning to become pregnant during the course of the study, or currently lactating.
• All Screened Participants includes those screened participants who signed informed consent form. • The Intent-to-Treat Population includes all randomized participants. […] Treatment groups assigned as randomized.
A Subset of patients (11%) was allowed to use one concomitant migraine preventive medication (e.g., amitriptyline, propranolol, topiramate). Patients were allowed to use acute headache treatments (i.e., triptans, ergotamine derivatives, NSAIDs, acetaminophen, and opioids) as needed. Patients with acute medication overuse and medication overuse headache were also enrolled. The use of a concomitant medication that acts on the CGRP pathway was not permitted for either acute or preventive treatment of migraine. The study excluded patients with myocardial infarction, stroke, or transient ischemic attacks within six months prior to screening.
Outcomes for this analysis included change from baseline in mean MMDs during 4-week intervals, change in weekly migraine days during weeks 1-4, and the proportion of participants with a migraine on each day during the first 7 days of treatment. […] Baseline MMDs ranged from 18.6 to 19.2 across treatment groups. […]

[1] = 30 mg BID, Off-Treatment Hypothetical Estimand population
[2] = 30 mg BID, mITT, listed as atogepant
[3] = 60 mg QD, Off-Treatment Hypothetical Estimand population
[4] = 60 mg QD, mITT, listed as atogepant
[5] = range over 30 mg twice daily and 60 mg once daily

C[C@@H]1[C@H](c2c(F)ccc(F)c2F)C[C@H](NC(=O)c2cnc3c(c2)C[C@@]2(C3)C(=O)Nc3ncccc32)C(=O)N1CC(F)(F)F [Atogepant, (S)—N—((3S,5S,6R)-6-methyl-2-oxo-1-(2,2,2-trifluoroethyl)-5-(2,3,6-trifluorophenyl)piperidin-3-yl)-2′-oxo-1′,2′,5,7-tetrahydrospiro[cyclopenta[b]pyridine-6,3′-pyrrolo[2,3-b]pyridine]-3-carboxamide]
MMDs, LS mean difference vs. placebo (30 mg BID): −3.02
participants with ≥50% reduction in 3-month average of MMDs (30 mg BID): 48.4%
≥50% reduction in 3-month average of MMDs, OR vs placebo (30 mg BID): 1.87
LS mean change in MMDs (30 mg BID, Europe subpopulation of OTHE population (n=91)): −8.44
decrease of monthly migraine days across the 12 weeks (30 mg BID, OTHE population): 7.33 days
>=50% reduction in 3-month average of monthly migraine days, Odds ratio Atogepant vs. Placebo [1]: 2.03
Change from baseline in mean monthly acute medication use days across the 12-week treatment period, LS Mean [1]: -6.61 days
Change from baseline in mean monthly acute medication use days across the 12-week treatment period, LSMD Atogepant vs. Placebo [1]: -2.52 days
Change from baseline in mean monthly headache days across the 12-week treatment period, LS Mean [1]: -7.32 days
Change from baseline in mean monthly headache days across the 12-week treatment period, LSMD Atogepant vs. Placebo [1]: -2.14 days
Change from baseline in mean monthly migraine days across the 12-week treatment period, LS Mean [1]: -7.33 days
Change from baseline in mean monthly migraine days across the 12-week treatment period, LSMD Atogepant vs. Placebo [1]: -2.24 days
>=50% reduction in 3-month average of monthly migraine days, Responders (30 mg BID, Off-Treatment Hypothetical Estimand population (N = 254)): 107 (42.1) n (%)
LSM change from baseline in mean monthly acute medication use days (30 mg BID): −8.4
mean monthly acute medication use days, LSM difference vs placebo (30 mg BID): −2.8
participants with ≥50% reduction in mean MMDs across the 12-week treatment period (30 mg BID): 44.7%
>=50% reduction in 3-month average of monthly migraine days, Odds ratio Atogepant vs. Placebo (30 mg BID, mITT): 2.13
Change from baseline in mean monthly acute medication use days across the 12-week treatment period, LS Mean (30 mg BID, mITT): -6.73 days
Change from baseline in mean monthly acute medication use days across the 12-week treatment period, LSMD Atogepant vs. Placebo (30 mg BID, mITT): -2.63 days
Change from baseline in mean monthly headache days across the 12-week treatment period, LS Mean (30 mg BID, mITT): -7.44 days
Change from baseline in mean monthly headache days across the 12-week treatment period, LSMD Atogepant vs. Placebo (30 mg BID, mITT): -2.32 days
Change from baseline in mean monthly migraine days across the 12-week treatment period, LS Mean (30 mg BID, mITT): -7.46 days
Change from baseline in mean monthly migraine days across the 12-week treatment period, LSMD Atogepant vs. Placebo (30 mg BID, mITT): -2.41 days
decrease of monthly migraine days across the 12 weeks (30 mg BID, mITT): 7.46 days
participants with ≥30% reduction in mean MMDs across 12 weeks (30 mg BID, mITT): 62.1%
participants with ≥50% reduction in mean MMDs across 12 weeks (30 mg BID, mITT): 42.7%
participants with ≥75% reduction in mean MMDs across 12 weeks (30 mg BID, mITT): 21.3%
Change from baseline in mean monthly migraine days across the 12-week treatment period, LS Mean [2]: -7.5 days
Change from baseline in mean monthly migraine days across the 12-week treatment period, LSMD Atogepant vs. Placebo [2]: -2.4 days
LSM change from baseline in mean MMDs across 12 weeks (30 mg BID): −8.3
mean change from baseline in MMDs (30 mg BID): -6.6 days
participants with <30% reduction in mean MMDs in month 1 who experienced ≥30% reduction in either month 2 or 3 (30 mg twice daily): 50/96
participants with <30% reduction in mean MMDs in month 1 who experienced ≥30% reduction in month 2 (30 mg twice daily): 36/99
participants with <50% reduction in mean MMDs in month 1 who experienced ≥50% reduction in either month 2 or 3 (30 mg twice daily): 52/132
participants with <50% reduction in mean MMDs in month 1 who experienced ≥50% reduction in month 2 (30 mg twice daily): 32/136
participants without ≥30% reduction in mean MMDs in months 1 or 2 who experienced a ≥30% response by the end of the trial (30 mg twice daily): 23.3%
participants without ≥50% reduction in mean MMDs in months 1 or 2 who experienced a ≥50% response by the end of the trial (30 mg twice daily): 20.0%
sustained response among participants with ≥75% response in month 1 (30 mg twice daily, mITT): 46.9%
sustained response of ≥30% in months 2 and 3 among participants with ≥30% response in month 1 (30 mg twice daily, mITT): 81.8%
sustained response of ≥50% in months 2 and 3 among participants with ≥50% response in month 1 (30 mg twice daily, mITT): 71.6%
MMDs, LS mean difference vs. placebo (60 mg QD): −2.59
participants with ≥50% reduction in 3-month average of MMDs (60 mg QD): 46.7%
≥50% reduction in 3-month average of MMDs, OR vs placebo (60 mg QD): 1.84
LS mean change in MMDs (60 mg QD, Europe subpopulation of OTHE population (n=90)): −8.00
decrease of monthly migraine days across the 12 weeks (60 mg QD, OTHE population): 6.75 days
>=50% reduction in 3-month average of monthly migraine days, Odds ratio Atogepant vs. Placebo [3]: 1.90
Change from baseline in mean monthly acute medication use days across the 12-week treatment period, LS Mean [3]: -6.19 days
Change from baseline in mean monthly acute medication use days across the 12-week treatment period, LSMD Atogepant vs. Placebo [3]: -2.09 days
Change from baseline in mean monthly headache days across the 12-week treatment period, LS Mean [3]: -6.90 days
Change from baseline in mean monthly headache days across the 12-week treatment period, LSMD Atogepant vs. Placebo [3]: -1.72 days
Change from baseline in mean monthly migraine days across the 12-week treatment period, LS Mean [3]: -6.75 days
Change from baseline in mean monthly migraine days across the 12-week treatment period, LSMD Atogepant vs. Placebo [3]: -1.66 days
>=50% reduction in 3-month average of monthly migraine days, Responders (60 mg QD, Off-Treatment Hypothetical Estimand population (N = 257)): 103 (40.1) n (%)
LSM change from baseline in mean monthly acute medication use days (60 mg QD): −8.1
mean monthly acute medication use days, LSM difference vs placebo (60 mg QD): −2.6
participants with ≥50% reduction in mean MMDs across the 12-week treatment period (60 mg QD): 41.8%
>=50% reduction in 3-month average of monthly migraine days, Odds ratio Atogepant vs. Placebo (60 mg QD, mITT): 2.04
Change from baseline in mean monthly acute medication use days across the 12-week treatment period, LS Mean (60 mg QD, mITT): -6.23 days
Change from baseline in mean monthly acute medication use days across the 12-week treatment period, LSMD Atogepant vs. Placebo (60 mg QD, mITT): -2.13 days
Change from baseline in mean monthly headache days across the 12-week treatment period, LS Mean (60 mg QD, mITT): -7.00 days
Change from baseline in mean monthly headache days across the 12-week treatment period, LSMD Atogepant vs. Placebo (60 mg QD, mITT): -1.87 days
Change from baseline in mean monthly migraine days across the 12-week treatment period, LS Mean (60 mg QD, mITT): -6.88 days
Change from baseline in mean monthly migraine days across the 12-week treatment period, LSMD Atogepant vs. Placebo (60 mg QD, mITT): -1.82 days
decrease of monthly migraine days across the 12 weeks (60 mg QD, mITT): 6.88 days
participants with ≥30% reduction in mean MMDs across 12 weeks (60 mg QD, mITT): 59.0%
participants with ≥50% reduction in mean MMDs across 12 weeks (60 mg QD, mITT): 41.0%
participants with ≥75% reduction in mean MMDs across 12 weeks (60 mg QD, mITT): 18.8%
Change from baseline in mean monthly migraine days across the 12-week treatment period, LS Mean [4]: -6.9 days
Change from baseline in mean monthly migraine days across the 12-week treatment period, LSMD Atogepant vs. Placebo [4]: -1.8 days
LSM change from baseline in mean MMDs across 12 weeks (60 mg QD): −7.5
mean change from baseline in MMDs (60 mg QD): -6.2 days
participants with <30% reduction in mean MMDs in month 1 who experienced ≥30% reduction in either month 2 or 3 (60 mg once daily): 45/108
participants with <30% reduction in mean MMDs in month 1 who experienced ≥30% reduction in month 2 (60 mg once daily): 31/113
participants with <50% reduction in mean MMDs in month 1 who experienced ≥50% reduction in either month 2 or 3 (60 mg once daily): 38/139
participants with <50% reduction in mean MMDs in month 1 who experienced ≥50% reduction in month 2 (60 mg once daily): 28/146
participants without ≥30% reduction in mean MMDs in months 1 or 2 who experienced a ≥30% response by the end of the trial (60 mg once daily): 17.1%
participants without ≥50% reduction in mean MMDs in months 1 or 2 who experienced a ≥50% response by the end of the trial (60 mg once daily): 8.2%
sustained response among participants with ≥75% response in month 1 (60 mg once daily, mITT): 52.5%
sustained response of ≥30% in months 2 and 3 among participants with ≥30% response in month 1 (60 mg once daily, mITT): 81.6%
sustained response of ≥50% in months 2 and 3 among participants with ≥50% response in month 1 (60 mg once daily, mITT): 74.2%
likelihood of having a migraine vs placebo (first full day after treatment initiation, atogepant-treated participants, P≤0.03): significantly less likely
participants with <30% reduction in mean MMDs in month 1 who experienced ≥30% reduction in either month 2 or 3 [5]: 41.7%-52.1%
participants with <30% reduction in mean MMDs in month 1 who experienced ≥30% reduction in month 2 [5]: 27.4%-36.4%
participants with <50% reduction in mean MMDs in month 1 who experienced ≥50% reduction in either month 2 or 3 [5]: 27.3%-39.4%
participants with <50% reduction in mean MMDs in month 1 who experienced ≥50% reduction in month 2 [5]: 19.2%-23.5%
